Legend:
murine splenocytes = assay: IL-12 production in murine splenocytes; format: cell-based; conditions: ODN titration, after 8 hours
Source text: By iterative examination of the flanking sequences surrounding CG dinucleotides, CpG-motifs have been identified. Paradoxically, or by twist of nature, the human optimal CpG-motif, GTCGTT (SEQ ID NO:66), is different from the murine motif, GACGTT (SEQ ID NO:129). Human peripheral blood mononuclear cells (PBMC) (FIG. 10A) and murine splenocytes (FIG. 10B) were stimulated with ODN 2006 (filled circle, […], SEQ ID NO:112), ODN 2006-GC (open circle), ODN 1668 (filled triangle, […], SEQ ID NO:84) or ODN 1668-GC (open triangle, […], SEQ ID NO:85) at indicated concentrations and IL-12 production was monitored after 8 hours. […] It should also be noted that the Kac (concentration of half-maximal activation) of murine splenocytes for 1668 was greater than human PBMC for 2006 (compare FIG. 10A to FIG. 10B).

[1] = tested on: plasmacytoid DC (CD123+DC); assay: Cytokine production by plasmacytoid dendritic cells (ELISA); format: cell-based, human; conditions: purified CD123+DC; ODN 2 μM, LPS 100 ng/ml
Protocol: Human dendritic cells (DC) have been claimed to be responsive to CpG-DNA. […] The converse was true for stimulation of monocyte-derived dendritic cells (MDDC) (FIG. 8 and unpublished data). […] IL-8 and TNF concentration was determined by enzyme-linked immunosorbent assay (ELISA). The CD123+DC response was DNA- and CpG-motif restricted. […] Due to this segregated response we analyzed TLR expression.

human TLR9 = target: T1, human TLR9 (Homo sapiens, UniProt Q9NR96, H530R/Q688R); assay: IL-8 production by ELISA in 293 cells transfected with human TLR9; format: cell-based; conditions: 293 cells transiently transfected with hTLR9 alone; 48 h; ODN 2 μM, LPS 100 ng/ml
T1 construct: expressed in transfected cells
T1 sequence (Q9NR96 26-1032 H530R/Q688R): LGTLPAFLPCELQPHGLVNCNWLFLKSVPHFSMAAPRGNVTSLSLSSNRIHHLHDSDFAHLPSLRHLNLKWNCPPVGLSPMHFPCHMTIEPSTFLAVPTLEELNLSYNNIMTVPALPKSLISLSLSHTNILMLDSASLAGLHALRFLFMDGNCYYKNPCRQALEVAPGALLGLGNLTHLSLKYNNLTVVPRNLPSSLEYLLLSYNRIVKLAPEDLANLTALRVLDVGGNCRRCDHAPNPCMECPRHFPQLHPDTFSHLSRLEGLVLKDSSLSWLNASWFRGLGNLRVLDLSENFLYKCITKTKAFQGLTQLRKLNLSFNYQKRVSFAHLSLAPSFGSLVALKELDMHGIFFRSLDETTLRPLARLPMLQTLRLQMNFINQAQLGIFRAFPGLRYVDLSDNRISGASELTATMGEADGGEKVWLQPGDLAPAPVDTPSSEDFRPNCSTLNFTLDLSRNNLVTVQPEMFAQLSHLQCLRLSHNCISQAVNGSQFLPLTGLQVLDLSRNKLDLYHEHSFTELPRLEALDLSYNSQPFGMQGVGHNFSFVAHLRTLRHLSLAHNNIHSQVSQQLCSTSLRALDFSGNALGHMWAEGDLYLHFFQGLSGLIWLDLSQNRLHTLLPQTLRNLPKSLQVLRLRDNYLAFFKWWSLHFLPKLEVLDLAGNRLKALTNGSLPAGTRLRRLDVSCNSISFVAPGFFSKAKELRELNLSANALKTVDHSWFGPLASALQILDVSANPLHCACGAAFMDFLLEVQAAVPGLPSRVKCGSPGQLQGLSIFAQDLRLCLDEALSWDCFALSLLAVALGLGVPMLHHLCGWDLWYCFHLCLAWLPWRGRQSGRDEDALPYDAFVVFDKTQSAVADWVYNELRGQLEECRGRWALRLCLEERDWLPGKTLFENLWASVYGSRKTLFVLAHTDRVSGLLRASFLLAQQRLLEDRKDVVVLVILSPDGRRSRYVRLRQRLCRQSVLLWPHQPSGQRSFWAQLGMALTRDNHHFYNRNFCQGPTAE
Source text: Since NF-κB activation is central to the IL-1/TLR signal transduction pathway (Medzhitov R et al., Mol Cell 2:253-258 (1998); Muzio M et al., J Exp Med 187:2097-2101 (1998)), cells were transfected with hTLR9 or co-transfected with hTLR9 and a NF-κB-driven luciferase reporter construct. Human fibroblast 293 cells were transiently transfected with (FIG. 1A) hTLR9 and a six-times NF-κB-luciferase reporter plasmid (NF-κB-luc, kindly provided by Patrick Baeuerle, Munich, Germany) or (FIG. 1B) with hTLR9 alone. After stimulus with CpG-ODN (2006, 2 μM, […], SEQ ID NO:112), GpC-ODN (2006-GC, 2 μM, […], SEQ ID NO:118), LPS (100 ng/ml) or media, NF-κB activation by luciferase readout (8 h, FIG. 1A) or IL-8 production by ELISA (48 h, FIG. 1B) were monitored. Results are representative of three independent experiments. […]
Because stable TLR9 transfectants mirrored primary cell responsiveness to CpG-DNA (FIGS. 4 and 5), it was hypothesized that stable transfectants could potentially discern species-specific CpG-motifs through TLR9 receptors. […] Depicted are both NF-κB-driven luciferase and IL-8 production as readout. […] After lysis of the cells luciferase can be detected photometrically based on an enzymatic reaction by luciferase which creates photons. IL-8 production was monitored using enzyme-linked immunosorbent assay (ELISA). […]

With TCGTCGTTTTGTCGTTTTGTCGTT [ODN 2006] the IL-12 production (murine splenocytes) was “much less effective”, the “cytokine production by CD123+DC” value [1] was “produced IFN-α, TNF, GM-CSF, and IL-8” and the “IL-8 production by ELISA” value (human TLR9) was “responded”.
In the case of lipopolysaccharide [LPS], the “cytokine production by CD123+DC” value [1] is reported as “not” and the “IL-8 production by ELISA” value (human TLR9) is reported as “not”.
For “TCCATGACGTTCCTGATGCT (listed as DNA, chemistry not fully specified) [ODN 1668]”, the IL-12 production (murine splenocytes) was “induced optimal IL-12”.

Reference: patent publication US7820379B2, “Process for high throughput screening of CpG-based immuno-agonist/antagonist” (Coley Pharmaceutical GmbH, priority 2000, dated 2010)
